The values that follow come from ChEMBL document CHEMBL3860079, “Design and synthesis of novel HDAC8 inhibitory 2,5-disubstituted-1,3,4-oxadiazoles containing glycine and alanine hybrids with anti cancer activity” (Bioorg Med Chem, 2016).

A short description of assay [1]: Cytotoxicity against human MDA-MB-231 cells assessed as reduction in cell viability measured after 24 hrs by MTT assay. The format is functional, cell-based. Conditions: MDA-MB-231, 24 h. (In general: Tetrazolium dyes change colour on reduction, which living cells bring about.)
In a further assay the target is T1, Histone deacetylase 8 (Homo sapiens, UniProt Q9BY41).
T1 sequence (Q9BY41 whole entry): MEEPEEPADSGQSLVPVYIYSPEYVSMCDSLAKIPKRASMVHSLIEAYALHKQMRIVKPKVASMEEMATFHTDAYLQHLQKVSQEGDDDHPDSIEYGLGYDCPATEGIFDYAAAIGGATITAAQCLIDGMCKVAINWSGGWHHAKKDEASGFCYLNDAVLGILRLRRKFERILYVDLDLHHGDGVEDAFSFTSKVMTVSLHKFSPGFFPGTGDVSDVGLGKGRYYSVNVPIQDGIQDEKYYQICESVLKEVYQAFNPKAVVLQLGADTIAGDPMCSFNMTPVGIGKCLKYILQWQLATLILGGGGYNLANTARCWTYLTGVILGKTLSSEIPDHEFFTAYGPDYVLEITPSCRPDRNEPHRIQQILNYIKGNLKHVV
Nature of the assay: Inhibition of recombinant human full length GST-tagged HDAC8 expressed in Escherichia coli DH5alpha (DE3) assessed as inhibition of deacetylation activity using Fluor-de-Lys as substrate measured after 15 mins by fluorimetric assay.

Assay [2] has as its target T2, Histone deacetylase 3 (Homo sapiens, UniProt O15379). Nature of the assay: Inhibition of HDAC3 in human MDA-MB-231 cells assessed as inhibition of deacetylation activity using Fluor-de-Lys as substrate measured after 15 mins by fluorimetric assay. The format is cell-based.
The target in assay [3] is T3, Histone deacetylase 1 (Homo sapiens, UniProt Q13547). Nature of the assay: Inhibition of HDAC1 in human MDA-MB-231 cells assessed as inhibition of deacetylation activity at 100 nM using Fluor-de-Lys as substrate measured after 15 mins by fluorimetric assay. Format: cell-based.
T3 sequence (Q13547 whole entry): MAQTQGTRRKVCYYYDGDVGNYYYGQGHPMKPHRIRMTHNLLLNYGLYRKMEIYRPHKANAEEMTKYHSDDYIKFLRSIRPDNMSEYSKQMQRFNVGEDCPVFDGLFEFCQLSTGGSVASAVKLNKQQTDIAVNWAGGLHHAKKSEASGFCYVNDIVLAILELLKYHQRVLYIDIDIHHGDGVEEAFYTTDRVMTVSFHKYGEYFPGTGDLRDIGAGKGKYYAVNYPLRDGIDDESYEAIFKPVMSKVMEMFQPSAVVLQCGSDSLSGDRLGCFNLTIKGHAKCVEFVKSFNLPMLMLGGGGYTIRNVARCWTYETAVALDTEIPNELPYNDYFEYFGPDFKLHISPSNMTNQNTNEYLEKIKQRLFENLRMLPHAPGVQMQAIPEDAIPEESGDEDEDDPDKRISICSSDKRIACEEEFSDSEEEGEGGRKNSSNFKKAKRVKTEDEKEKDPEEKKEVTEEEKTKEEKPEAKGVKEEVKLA
The species named for assay [4] is Homo sapiens. Nature of the assay: Selectivity ratio of IC50 for human full length GST-tagged HDAC8 expressed in Escherichia coli DH5alpha (DE3) to IC50 for HDAC2 in human MDA-MB-231 cells.
Assay [5] concerns the target T4, Histone deacetylase 8 (Homo sapiens) (UniProt Q9BY41).
T4 sequence (whole entry): T1 sequence (Q9BY41 whole entry)
Put plainly: Inhibition of human HDAC8 immunoprecipitated from MDA-MB-231 cell lysates assessed as inhibition of deacetylation activity at 100 nM using Fluor-de-Lys as substrate measured after 15 mins by fluorimetric assay.

The species named for assay [6] is Homo sapiens. Put plainly: Selectivity ratio of IC50 for human full length GST-tagged HDAC8 expressed in Escherichia coli DH5alpha (DE3) to IC50 for HDAC1 in human MDA-MB-231 cells.
The target of assay [7] is T3, Histone deacetylase 1. Nature of the assay: Inhibition of HDAC1 in human MDA-MB-231 cells assessed as inhibition of deacetylation activity using Fluor-de-Lys as substrate measured after 15 mins by fluorimetric assay. Format: cell-based.
The target of assay [8] is T5, Histone deacetylase 2 (Homo sapiens, UniProt Q92769). Nature of the assay: Inhibition of HDAC2 in human MDA-MB-231 cells assessed as inhibition of deacetylation activity using Fluor-de-Lys as substrate measured after 15 mins by fluorimetric assay. The format is cell-based.
T5 sequence (Q92769 whole entry): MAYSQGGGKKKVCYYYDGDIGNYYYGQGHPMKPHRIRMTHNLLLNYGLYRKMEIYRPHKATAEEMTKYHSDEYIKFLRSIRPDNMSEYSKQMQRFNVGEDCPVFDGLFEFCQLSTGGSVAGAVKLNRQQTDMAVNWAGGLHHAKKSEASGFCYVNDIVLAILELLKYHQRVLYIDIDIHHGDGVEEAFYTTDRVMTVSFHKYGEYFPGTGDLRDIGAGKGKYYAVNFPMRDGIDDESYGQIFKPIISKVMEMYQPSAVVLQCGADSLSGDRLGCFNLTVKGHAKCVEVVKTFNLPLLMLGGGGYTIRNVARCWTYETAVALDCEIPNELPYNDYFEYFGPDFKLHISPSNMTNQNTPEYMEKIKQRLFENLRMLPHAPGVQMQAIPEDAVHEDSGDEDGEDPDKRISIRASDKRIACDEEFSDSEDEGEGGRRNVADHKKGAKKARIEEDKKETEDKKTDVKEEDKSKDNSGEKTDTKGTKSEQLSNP
Assay [9] has as its target T2, Histone deacetylase 3. Put plainly: Inhibition of HDAC3 in human MDA-MB-231 cells assessed as inhibition of deacetylation activity at 100 nM using Fluor-de-Lys as substrate measured after 15 mins by fluorimetric assay. The format is cell-based.
The target of assay [10] is T5, Histone deacetylase 2. Put plainly: Inhibition of HDAC2 in human MDA-MB-231 cells assessed as inhibition of deacetylation activity at 100 nM using Fluor-de-Lys as substrate measured after 15 mins by fluorimetric assay. The format is cell-based.

Where only a bound is given, the exact number is not on record here.

T2 sequence (O15379 whole entry): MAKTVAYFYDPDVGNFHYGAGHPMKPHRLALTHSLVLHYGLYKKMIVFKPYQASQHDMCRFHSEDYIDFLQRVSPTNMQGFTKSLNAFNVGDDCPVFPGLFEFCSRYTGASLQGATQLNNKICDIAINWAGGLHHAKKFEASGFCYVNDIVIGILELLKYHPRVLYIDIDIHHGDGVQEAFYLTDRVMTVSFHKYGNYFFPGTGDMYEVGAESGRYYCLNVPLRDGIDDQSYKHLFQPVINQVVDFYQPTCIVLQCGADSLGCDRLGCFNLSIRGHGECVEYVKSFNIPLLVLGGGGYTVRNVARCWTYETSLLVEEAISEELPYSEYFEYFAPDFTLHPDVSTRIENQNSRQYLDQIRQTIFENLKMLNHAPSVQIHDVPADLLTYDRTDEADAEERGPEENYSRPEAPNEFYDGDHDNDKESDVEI

As for `COc1ccc(-c2nnc(CNC(=O)[C@@H](C)N)o2)cc1`, the figures for the IC50 (in [1]; at Histone deacetylase 8) were 295 nM and 153 nM, respectively.
For the compound `Cc1ccc(-c2nnc(CNC(=O)CN)o2)cc1`, the values for the IC50 (in [1]; at Histone deacetylase 8) were 260 nM and 139 nM, respectively.
On the same counts, the results for `C[C@@H](N)C(=O)NCc1nnc(-c2ccc(F)cc2)o1` are 247 nM and 116 nM.
`COc1ccc(-c2nnc(CNC(=O)CN)o2)cc1`: the IC50 in assay [1] came to 276 nM; on Histone deacetylase 8, 142 nM.
For `C[C@@H](N)C(=O)NCc1nnc(-c2ccc([N+](=O)[O-])cc2)o1`, the IC50 stood at 261 nM in assay [1] and 127 nM at Histone deacetylase 8.
`C[C@@H](N)C(=O)NCc1nnc(-c2ccccc2)o1`: the half-maximal inhibitory concentration (IC50) is above 10000 nM at Histone deacetylase 3 [2]; 230 nM in assay [1]; 98 to 100 nM at Histone deacetylase 8; 260 nM on Histone deacetylase 1 [7]; 135 nM at Histone deacetylase 2 [8]. The inhibition on Histone deacetylase 1 [3] was 30%; in assay [5] it was 53%; on Histone deacetylase 3 [9], 0%; at Histone deacetylase 2 [10], 19%. The Ratio IC50 is 0.74 in the assay listed under Homo sapiens [4] and 0.38 in the assay listed under Homo sapiens [6].
Regarding `NCC(=O)NCc1nnc(-c2ccc([N+](=O)[O-])cc2)o1`, the half-inhibitory concentration (IC50) in assay [1] stood at 276 nM; at Histone deacetylase 8 it was 134 nM.
Consider `Cc1ccc(-c2nnc(CNC(=O)[C@@H](C)N)o2)cc1`, for which the IC50 stood at 254 nM in assay [1] and 121 nM at Histone deacetylase 8.
Take `NCC(=O)NCc1nnc(-c2ccccc2)o1`: the IC50 in [1] was determined as 283 nM; at Histone deacetylase 8, 155 nM.
On the same counts, the results for `NCC(=O)NCc1nnc(-c2ccc(F)cc2)o1` are 254 nM and 135 nM.

In general, IC50 refers to the concentration that inhibits the measured activity by half. The inhibition is how much of the control response was suppressed.
